Measurements from patent publication US20230027066A1 (Urovant Sciences GmbH, priority 2019, published 2023).

Tests used:
[1] = dose-Cmax and dose-AUC models / log-log regression from Phase 1 data
Procedure: In order to contextualize PK parameters of a 75 mg dose, dose-Cmax and dose-AUC models were created using data from Phase 1 studies.

[2] = Phase 1 program safety (16 Phase 1 studies); type: in vivo; conditions: single doses 2 to 600 mg, multiple doses 25 to 400 mg up to 28 days
Source text: Safety data from 16 Phase 1 studies, which include 15 completed Phase 1 studies and 1 study that was terminated early (this study was terminated for reasons unrelated to efficacy or safety) was collected.

[3] = ABPM study, in-clinic vital signs; type: in vivo, human; conditions: SAF
Procedure: Safety was evaluated by assessment of clinical laboratory tests, physical examinations, and vital signs measurements from office visits at various time points during the study, and by the documentation of AEs.
Tables 106, 107, and 108 show the changes to in-clinic measurements of systolic blood pressure, diastolic blood pressure, and heart rate over the treatment period.
For subjects with a body weight of at least about 65.4 kg, there was no difference between treatment and placebo in the number of subjects with a ≥5, ≥10, or ≥15 mm Hg increase in systolic blood pressure. The same was true for subjects over the age of 66.

[4] = estimated 75 mg vs 200 mg single dose
[5] = estimated 75 mg vs 400 mg single dose
[6] = Baseline to Day 28, subgroup Age <= 75th percentile (66 years)
[7] = Baseline to Day 28, subgroup Age > 75th percentile (66 years)
[8] = Baseline to Day 28, subgroup Body Weight <= 25th Percentile (65.4 kg)
[9] = Baseline to Day 28, subgroup Body Weight > 25th Percentile (65.4 kg)
[10] = Baseline to Day 28, subgroup Pre-existing hypertension: NO
[11] = Baseline to Day 28, subgroup Pre-existing hypertension: YES
[12] = Baseline to Day 28, subgroup eGFR <= 25th Percentile (72 mL/min/1.73 m^2)
[13] = Baseline to Day 28, subgroup eGFR > 25th Percentile (72 mL/min/1.73 m^2)
[14] = Baseline to End of Treatment, subgroup <= 25th percentile BW (65.4 kg)
[15] = Baseline to End of Treatment, subgroup >25th percentile BW (65.4 kg)

## O=C(Nc1ccc(C[C@@H]2CC[C@H]([C@H](O)c3ccccc3)N2)cc1)[C@@H]1CCc2nccc(=O)n21 [Vibegron, (6S)-N-[4-[[(2S,5R)−5-[(R)-hydroxy(phenyl)methyl]pyrrolidin−2-yl]methyl]phenyl]−4-oxo−7,8-dihydro−6H-pyrrolo[1,2-a]pyrimidine−6-carboxamide]
[1]; [4]
  AUC of 75 mg dose lower than 200 mg single dose: ~2 fold
  Cmax of 75 mg dose lower than 200 mg single dose: approximately 3.3 fold
[1]; [5]
  AUC of 75 mg dose lower than 400 mg single dose: ~6 fold
  Cmax of 75 mg dose lower than 400 mg single dose: ~9.2 fold
[1]; vibegron 50 vs 100 mg
  increase in Cmax with increase in dose from 50 to 100 mg: ~3 fold
[1]; vibegron 75 vs 100 mg
  reduction in Cmax with a 25% reduction in dose (100 mg to 75 mg): ~40%
[2]
  tolerability across the Phase 1 program: generally well tolerated
[3]; Baseline to Day 28
  In-clinic DBP (mmHg) change from baseline ≥5, subjects: 24 (23.3) n (%)
  In-clinic DBP (mmHg) change from baseline ≥10, subjects: 9 (8.7) n (%)
  In-clinic DBP (mmHg) change from baseline ≥15, subjects: 2 (1.9) n (%)
  In-clinic HR (bpm) change from baseline ≥5, subjects: 24 (23.3) n (%)
  In-clinic HR (bpm) change from baseline ≥10, subjects: 8 (7.8) n (%)
  In-clinic HR (bpm) change from baseline ≥15, subjects: 3 (2.9) n (%)
  In-clinic SBP (mmHg) change from baseline ≥5, subjects: 33 (32.0) n (%)
  In-clinic SBP (mmHg) change from baseline ≥10, subjects: 22 (21.4) n (%)
  In-clinic SBP (mmHg) change from baseline ≥15, subjects: 10 (9.7) n (%)
[3]; [6]
  In-clinic SBP change from baseline ≥5, subjects: 28 (34.6) n (%)
  In-clinic SBP change from baseline ≥10, subjects: 18 (22.2) n (%)
  In-clinic SBP change from baseline ≥15, subjects: 9 (11.1) n (%)
[3]; [7]
  In-clinic SBP change from baseline ≥5, subjects: 5 (22.7) n (%)
  In-clinic SBP change from baseline ≥10, subjects: 4 (18.2) n (%)
  In-clinic SBP change from baseline ≥15, subjects: 1 (4.5) n (%)
[3]; [8]
  In-clinic SBP change from baseline ≥5, subjects: 9 (32.1) n (%)
  In-clinic SBP change from baseline ≥10, subjects: 6 (21.4) n (%)
  In-clinic SBP change from baseline ≥15, subjects: 2 (7.1) n (%)
[3]; [9]
  In-clinic SBP change from baseline ≥5, subjects: 24 (32.0) n (%)
  In-clinic SBP change from baseline ≥10, subjects: 16 (21.3) n (%)
  In-clinic SBP change from baseline ≥15, subjects: 8 (10.7) n (%)
[3]; [10]
  In-clinic SBP change from baseline ≥5, subjects: 20 (31.3) n (%)
  In-clinic SBP change from baseline ≥10, subjects: 13 (20.3) n (%)
  In-clinic SBP change from baseline ≥15, subjects: 6 (9.4) n (%)
[3]; [11]
  In-clinic SBP change from baseline ≥5, subjects: 13 (33.3) n (%)
  In-clinic SBP change from baseline ≥10, subjects: 9 (23.1) n (%)
  In-clinic SBP change from baseline ≥15, subjects: 4 (10.3) n (%)
[3]; [12]
  In-clinic SBP change from baseline ≥5, subjects: 7 (23.3) n (%)
  In-clinic SBP change from baseline ≥10, subjects: 4 (13.3) n (%)
  In-clinic SBP change from baseline ≥15, subjects: 1 (3.3) n (%)
[3]; [13]
  In-clinic SBP change from baseline ≥5, subjects: 26 (35.6) n (%)
  In-clinic SBP change from baseline ≥10, subjects: 18 (24.7) n (%)
  In-clinic SBP change from baseline ≥15, subjects: 9 (12.3) n (%)
[3]; Baseline to End of Treatment
  In-clinic DBP (mmHg) change from baseline ≥5, subjects: 31 (29.5) n (%)
  In-clinic DBP (mmHg) change from baseline ≥10, subjects: 12 (11.4) n (%)
  In-clinic DBP (mmHg) change from baseline ≥15, subjects: 7 (6.7) n (%)
  In-clinic HR (bpm) change from baseline ≥5, subjects: 37 (35.2) n (%)
  In-clinic HR (bpm) change from baseline ≥10, subjects: 12 (11.4) n (%)
  In-clinic HR (bpm) change from baseline ≥15, subjects: 4 (3.8) n (%)
  In-clinic SBP (mmHg) change from baseline ≥5, subjects: 36 (34.3) n (%)
  In-clinic SBP (mmHg) change from baseline ≥10, subjects: 22 (21.0) n (%)
  In-clinic SBP (mmHg) change from baseline ≥15, subjects: 13 (12.4) n (%)
[3]; [14]
  In-clinic SBP change from baseline ≥5, subjects: 13 (43.3) n (%)
  In-clinic SBP change from baseline ≥10, subjects: 9 (30.0) n (%)
  In-clinic SBP change from baseline ≥15, subjects: 5 (16.7) n (%)
[3]; [15]
  In-clinic SBP change from baseline ≥5, subjects: 23 (30.7) n (%)
  In-clinic SBP change from baseline ≥10, subjects: 13 (17.3) n (%)
  In-clinic SBP change from baseline ≥15, subjects: 8 (10.7) n (%)
